Experimental findings from ChEMBL document CHEMBL5357073, “Novel Heterocyclic PAD4 Inhibitors for Treating Multiple Diseases” (ACS Med Chem Lett, 2024) are described below.

A value given as a limit tells only on which side of the number the result lay.

The test deals with Protein-arginine deiminase type-4 (Homo sapiens, UniProt Q9UM07). Nature of the test: Inhibition of human recombinant PAD4 using TSTGGRQGSHH peptide as substrate preincubated for 30 mins followed by substrate addition and measured after 90 mins by RapidFire mass spectroscopy analysis.
Sequence of Protein-arginine deiminase type-4 (Q9UM07 whole entry): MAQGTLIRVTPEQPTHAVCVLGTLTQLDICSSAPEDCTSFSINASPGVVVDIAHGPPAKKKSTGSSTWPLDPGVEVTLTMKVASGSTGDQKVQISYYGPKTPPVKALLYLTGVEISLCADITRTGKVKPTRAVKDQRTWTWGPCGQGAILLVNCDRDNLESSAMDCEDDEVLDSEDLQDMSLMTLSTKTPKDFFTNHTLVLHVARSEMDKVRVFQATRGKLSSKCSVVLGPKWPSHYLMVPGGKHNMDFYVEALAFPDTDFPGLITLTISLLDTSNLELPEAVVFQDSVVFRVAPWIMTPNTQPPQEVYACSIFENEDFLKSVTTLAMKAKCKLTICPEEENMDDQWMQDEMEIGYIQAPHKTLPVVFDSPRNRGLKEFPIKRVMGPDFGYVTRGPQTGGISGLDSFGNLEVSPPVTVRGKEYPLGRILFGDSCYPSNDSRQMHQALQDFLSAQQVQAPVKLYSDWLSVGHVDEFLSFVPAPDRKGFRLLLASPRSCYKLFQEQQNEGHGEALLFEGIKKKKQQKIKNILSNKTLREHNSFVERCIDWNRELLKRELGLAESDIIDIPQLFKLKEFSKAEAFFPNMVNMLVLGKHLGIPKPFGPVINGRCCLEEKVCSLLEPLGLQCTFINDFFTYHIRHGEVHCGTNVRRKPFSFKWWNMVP
The IC50 is the midpoint of a concentration-inhibition curve. For the molecule `COC(=O)N(C)CCOc1cccc2cc(-c3nc4cc5c(cc4n3C)CCN(CC(N)CF)C5=O)n(CC3CC3)c12` (stereo unspecified), the 50% inhibitory concentration (IC50) was at most 10 nM.
On to `Cn1c(-c2cc3cccc(OCCn4cnnn4)c3n2CC2CC2)nc2cc3c(cc21)CCN(CC(N)CF)C3=O` (stereo unspecified), for which the half-inhibitory concentration (IC50) was at most 10 nM.
Take `Cn1c(-c2cc3cccc(OCCn4ccnc4)c3n2CC2CC2)nc2cc3c(cc21)CCN(CC(N)CF)C3=O` (stereo unspecified): the IC50 is at most 10 nM.
Regarding `Cn1c(-c2cc3cccc(OCC4CNC(=O)O4)c3n2CC2CC2)nc2cc3c(cc21)CCN(CC(N)CF)C3=O` (stereo unspecified), the IC50 was at most 10 nM.
For `Cn1c(-c2cc3cccc(OCCn4cncn4)c3n2CC2CC2)nc2cc3c(cc21)CCN(CC(N)CF)C3=O` (stereo unspecified), the IC50 is at most 10 nM.
The same measure for `Cn1c(-c2cc3cccc(OCCc4cnoc4)c3n2CC2CC2)nc2cc3c(cc21)CCN(CC(N)CF)C3=O` (stereo unspecified): at most 10 nM.
